Assay results as given in patent US9365597B2, “Mitochondria-targeted inhibitors of cytochrome c peroxidase for protection from apoptosis” (Brock University, priority 2011, dated 2016).

How the values were obtained:
[1] = Hydrolysis of TPP-IOA by cytosol and mitochondrial fractions of mouse embryonic cells (HPLC); type: in vitro ADME
Experimental: Incubations were carried out in 0.1 M phosphate buffer (pH 7.0) for 25 min at 37° C.; and reaction was stopped with CH3CN denatured proteins were centrifuged, and the supernatant was subjected to HPLC analysis. The volume of samples was 1 ml.
To test this, assessments of esterase activity of mitochondria and cytosolic fractions isolated from mouse embryonic cells were performed based on HPLC measurements of TPP-IOA (FIG. 4). […] Thus, both TPP-IOA and its de-esterifed form, IOA, could be present in mitochondria of mouse embryonic cells.

[2] = test system: C57BL/6NTac female mice; assay: Health of non-irradiated mice after i.p. injection; type: in vivo, mouse; conditions: i.p. 5 mg per kg body weight, period of study 52 days
[3] = molecular target: T1, cyt c/TLCL (Equus caballus, UniProt P00004); assay: cyt c/H2O2-induced TLCL (tetra-linoleoyl-cardiolipin) peroxidation, ESI-MS; type: biochemical; conditions: for inhibition of cyt c/H2O2-induced oxidation of TLCL: cyt c 4 μM, TLCL 100 μM, H2O2 80 μM, 10 min, 37° C.; for oxidation of TLCL at ratio of cyt c to compound of 1:20: cyt c:compound 1:20
T1 construct: purchased Sigma (St. Louis, Mo.)
T1 sequence (P00004 2-105 limits assumed): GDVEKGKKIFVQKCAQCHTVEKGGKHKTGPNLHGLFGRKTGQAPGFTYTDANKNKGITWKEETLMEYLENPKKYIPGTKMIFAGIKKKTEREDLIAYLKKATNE
Experimental: For measurement of TLCL oxidation, cyt c (4 μM) was incubated with TLCL (100 μM) containing liposomes (TLCL/cyt c ratio-20:1) and H2O2 (80 μM) for 10 min at 37° C. The reaction was stopped by catalase (150 units/ml) and CL was extracted using Folch procedure^37. Analysis of (hydroperoxy- and hydroxy-) oxidized phospholipid species was performed as described^30. TLCL and its oxidized molecular species were extracted by the Folch procedure^37 and separated on a normal phase column (Luna 3 μm Silica 100A, 150×2 mm, Phenomenex, Torrance Calif.). […] The ESI probe was operated at a voltage differential of 3.5-5.0 kV in the negative ion mode. Capillary temperature was maintained at 150° C. Using range zoom (200-2000 m/z) in negative ion mode, the centroid spectra were acquired.
(§1) Small unilamellar liposomes were prepared from dioleoylphosphatidylcholine (DOPC) and TOCL (1:1 ratio) or DOPC and TLCL (4:1 ratio) by sonication in HEPES buffer (20 mM with 100 μM diethylene triamine pentaacetic acid (DTPA) (pH 7.4) 3×60 sec, relaxation time 2 min, 4° C.).

[4] = molecular target: T2, cyt c/TOCL complexes (Equus caballus, UniProt P00004); assay: Peroxidase activity of cyt c/TOCL complexes, H2O2-induced oxidation of Amplex Red to resorufin; type: biochemical; conditions: cyt c 1 μM, CL/cyt c 25:1, 50 μM Amplex Red, 50 μM H2O2, 20 min
T2 construct: purchased Sigma (St. Louis, Mo.)
T2 sequence (P00004 2-105 limits assumed, one chain of several): as the sequence (P00004 2-105 limits assumed) above
Experimental: Conditions: cyt c (1 μM), H2O2 (50 μM), Amplex Red (50 μM). Experiments were performed in 20 mM HEPES buffer (pH 7.4) containing DTPA (100 μM), cyt c was incubated with DOPC/TOCL liposomes (1:1) at a ratio of TOCL:cyt c of 25:1.
Peroxidase activity of cyt c was assessed by oxidation of Amplex Red, etoposide or TLCL (tetra-linoleoyl-cardiolipin). Measurements of Amplex Red oxidation were performed using fluorescence of its oxidation product resorufin. Cyt c (1 μM) was incubated with tetra-oleoyl-cardiolipin (TOCL) containing liposomes (CL/cyt c ratio 25:1). Then 50 μM Amplex Red and 50 μM H2O2 were added, and the incubation proceeded for an additional 20 min. Fluorescence was detected by employing a “Fusion α” universal microplate analyzer and by using an excitation wavelength of 535 nm and an emission wavelength of 590 nm. EPR spectra of etoposide phenoxyl radicals were recorded at 25° C. in gas permeable Teflon tubings (inner diameter, 0.8 mm; thickness, 0.013; Alpha Wire Corp., Elizabeth, N.J.). Volume of samples was 60 μL. The spectra were recorded under the following conditions: 335.3 mT, center field; 2 mT, sweep width; 0.04 mT, field modulation; 10 mW, microwave power; 0.1 s, time constant; 2 min, time scan. The time course of the etoposide radical EPR signal was obtained by repeated scanning of the field (0.15 mT, sweep width; 335.3 mT, center field) corresponding to a part of the EPR signal. Peroxidase activity of mitochondria was determined by the formation of resorufin from Amplex Red. Isolated mouse liver mitochondria (0.6 mg/ml) were incubated in the presence of 100 μM Amplex Red and 2 mM tert-butyl hydroperoxide (tBOOH). After incubation at room temperature for 20 min, fluorescence of resurufin was measured.
as §1
Peroxidase activity of cyt c was assessed by oxidation of Amplex Red, etoposide or TLCL as described above.

[5] = test system: C57BL/6NTac female mice; assay: Survival of mice after 9.25 Gy total body irradiation, linear accelerator; type: in vivo, mouse; conditions: for Overall Survival (52 days): p versus irradiated mice / Survival Over First 20 Days: p versus irradiated mice: log-rank
Experimental: C57BL/6NTac female mice were exposed to total body irradiation to a dose of 9.25 Gy using a linear accelerator (n=10-23 mice per group). The mice were injected i.p. with TPP-IOA (5 mg per kg body weight in 100 μl of water containing 25% ethanol) at 1 h or 10 min before irradiation or 10 min, 5 or 24 h after irradiation. Mice exposed to: total body irradiation at the dose of 9.25 Gy only (black circles); to total body irradiation at the dose of 9.25 Gy and injected with TPP-IOA (5 mg per kg body weight) 10 min (grey circles), 5 h (downward-pointing triangles) and 24 h (lower grey squares) thereafter. Mice injected with TPP-IOA (5 mg per kg body weight) 10 min (upper grey squares) and 1 h (upward-pointing triangles) before total body irradiation (9.25 Gy).
C57BL/6NTac female mice were anaesthetized with Nembutal (1 mg per 20 g mouse), irradiated to a total body dose of 9.25 Gy using either a Shepherd Mark 1 Model 68 cesium irradiator at a dose rate of 80 cGy min^−1 (31-35 mice per group) or a Varian TrueBeam linear accelerator (Varian Medical Systems) at 100 monitor units or 100 cGy min^−1 using 6 MV photons with a 40 cm×40 cm field at 100 SSD (10-23 mice per group). Mice were injected intraperitoneally (i.p.) with 5 mg per kg body weight of TPP-IOA in a 100 μl volume of water containing 25% ethanol at 1 h before irradiation, 10 min before irradiation, 10 min after irradiation, 5 h after irradiation and 24 h after irradiation. Other groups were injected i.p. with 2.5 mg per kg body weight of TPP-IOA or 5 mg per kg body weight of TPP-ISA 10 min after irradiation. The mice were followed for the development of haematopoietic syndrome (at which time they were killed).
The log-rank test was used for three analyses: the comparison of overall survival that is defined as the time from the date of radiation to the date of death for all mice under study; the comparison of short-term survival over the first 20 days, that is, the overall survival count at 20 days; and the comparison of conditional survival in mice surviving 20 or more days, that is, the time from the date of radiation to the date of death for all mice who survived 20 days or longer after radiation. All these comparisons were made between each of the treated groups and the radiation-only control group.

[6] = 2.5 mg/kg body weight i.p., 10 min after 9.25 Gy
[7] = 5 mg/kg body weight i.p., 10 min after 9.25Gy
[8] = 5 mg/kg body weight i.p., 10 min before 9.25Gy
[9] = 5 mg/kg body weight i.p., 1 hr before 9.25Gy
[10] = 5 mg/kg body weight i.p., 5 hr after 9.25Gy
[11] = 5 mg/kg body weight i.p., 24 hr after 9.25Gy

SMILES: CCCCCCC(C/C=C\CCCCCCCC(=O)OCCC[P+](c1ccccc1)(c1ccccc1)c1ccccc1)n1ccnc1.[Br-] (stereo not drawn) [TPP-IOA]
- hydrolysis rate in mitochondria ([1]; 1 mg protein/ml, pH 7.0, 37° C.): comparable to that in the cytosolic fraction
- hydrolysis of the ester bond by endogenous esterases ([1]; mitochondria and cytosol of mouse embryonic cells): hydrolysis of TPP-IOA takes place in both mitochondria and the cytosol
- adverse side effects in non-irradiated mice [2]: no adverse side effects were noticed
- inhibition of cyt c/H2O2-induced oxidation of TLCL [3]: inhibited cyt c/H2O2-induced oxidation of TLCL in a concentration-dependent manner
- oxidation of TLCL at ratio of cyt c to compound of 1:20 [3]: completely blocked
- inhibition of peroxidase activity of cyt c/TOCL complexes (Amplex Red oxidation) [4]: as effective as non-conjugated ISA and IOA
- mitigating the mice against irradiation, lower dose ([5]; 2.5 mg per kg body weight, 10 min after irradiation): not effective
- Overall Survival (52 days): Median Survival (95% Confidence Interval) [5, 6]: 17 (14, —) days
- Survival Over First 20 Days: Median Survival (95% Confidence Interval) [5, 6]: 17 (14, —) days
- Overall Survival (52 days): p versus irradiated mice [5, 6]: 0.0525
- Survival Over First 20 Days: p versus irradiated mice [5, 6]: 0.0525
- survival when given at later time points after irradiation ([5]; 5 mg per kg, 5 or 24 h after irradiation): significant increase in survival
- protection when given before irradiation ([5]; 5 mg per kg, 10 min or 1 h before irradiation): protective
- Overall Survival (52 days): Median Survival (95% Confidence Interval) [5, 7]: — (—, —)
- Survival Over First 20 Days: Median Survival (95% Confidence Interval) [5, 7]: — (—, —)
- Overall Survival (52 days): p versus irradiated mice [5, 7]: <0.0001
- Survival Over First 20 Days: p versus irradiated mice [5, 7]: <0.0001
- Overall Survival (52 days): p versus irradiated mice [5, 8]: 0.0009
- Survival Over First 20 Days: p versus irradiated mice [5, 8]: 0.0009
- Overall Survival (52 days): p versus irradiated mice [5, 9]: 0.0230
- Survival Over First 20 Days: p versus irradiated mice [5, 9]: 0.0230
- Overall Survival (52 days): p versus irradiated mice [5, 10]: 0.0030
- Survival Over First 20 Days: p versus irradiated mice [5, 10]: 0.0030
- Overall Survival (52 days): Median Survival (95% Confidence Interval) [5, 11]: 18 (13, —) days
- Survival Over First 20 Days: Median Survival (95% Confidence Interval) [5, 11]: 18 (13, —) days
- Overall Survival (52 days): p versus irradiated mice [5, 11]: 0.0416
- Survival Over First 20 Days: p versus irradiated mice [5, 11]: 0.0416

SMILES: CCCCCCC(CCCCCCCCCCC(=O)OCCC[P+](c1ccccc1)(c1ccccc1)c1ccccc1)n1ccnc1.[Br-] (stereo not drawn) [TPP-ISA]
- adverse side effects in non-irradiated mice [2]: no adverse side effects were noticed
- inhibition of cyt c/H2O2-induced oxidation of TLCL [3]: inhibited cyt c/H2O2-induced oxidation of TLCL in a concentration-dependent manner
- oxidation of TLCL at ratio of cyt c to compound of 1:20 [3]: completely blocked
- inhibition of peroxidase activity of cyt c/TOCL complexes (Amplex Red oxidation) [4]: as effective as non-conjugated ISA and IOA
- Overall Survival (52 days): p versus irradiated mice [5, 7]: 0.0114
- Survival Over First 20 Days: p versus irradiated mice [5, 7]: 0.0114
